Assay results from PMC7937589 (Drugs in R&D, 2020).

Tests used:
[1] = Plasma and urine pharmacokinetics of ASP3026; assay type: in vivo, human; conditions: for Tmax: human, plasma, oral
[2] = test system: advanced solid malignancies; conditions: US study, patients with ALK-positive tumors, especially NSCLC; cited from earlier work
solid tumors = assay: Antitumor activity, overall response by RECIST v1.1; assay type: in vivo, human; conditions: for Partial response rate: across all treatment cycles
[3] = test system: Japanese patients with solid tumors; assay type: in vivo, human
[4] = Japanese patients, oral once daily

SMILES: COc1cc(N2CCC(N3CCN(C)CC3)CC2)ccc1Nc1ncnc(Nc2ccccc2S(=O)(=O)C(C)C)n1 [ASP3026]
- Dose dependence of median Cmax and AUC24h ([1]; 25 mg to 325 mg, Day 1 and Day 28, escalation cohort): increased in a dose-dependent manner
- Tmax ([1]; Mean tmax across the dose groups, Day 1): 2.12 to 4.52 h
- Tmax ([1]; Mean tmax across the dose groups, Day 28): 2.48 to 3.75 h
- Tmax ([1]; Median tmax across the dose groups, Day 1): 1.97 to 3.97 h
- Tmax ([1]; Median tmax across the dose groups, Day 28): 2.48 to 3 h
- Steady state achieved ([1]; once daily oral dosing): ≤ 8 days
- Patients achieving partial response (PR) [2]: Half of the patients
- Partial response (solid tumors; Cycle 1, 200 mg daily, escalation (n = 3) and expansion (n = 6) cohorts): none of the patients
- Patients with stable disease (solid tumors; Cycle 1, 200 mg daily, escalation cohort (n = 3)): three
- Patients with stable disease (solid tumors; Cycle 1, 200 mg daily, expansion cohort (n = 6)): three
- Partial response rate (solid tumors; 75-mg dose group (1/3)): 33.3%
- Partial response rate (solid tumors; 125-mg dose group (1/4)): 25.0%
- Patients with dose-limiting toxicity (DLT) ([3]; 325 mg daily, Cycle 1, six patients evaluated): Three
- Maximum tolerated dose (MTD) [3, 4]: 200 mg
- Recommended phase II dose (RP2D) [3, 4]: 200 mg
- Total incidence of Grade 4 TEAEs ([3]; all cohorts (1/29)): 3.4%
- Total incidence of Grade 5 TEAEs ([3]; all cohorts (1/29)): 3.4%
- Patients reporting eye disorders ([3]; all cohorts (4/29)): 13.8%
- Total incidence of Grade 1 TEAEs ([3]; all cohorts (6/29)): 20.7%
- Total incidence of Grade 2 TEAEs ([3]; all cohorts (8/29)): 27.6%
- Total incidence of Grade 3 TEAEs ([3]; all cohorts (13/29)): 44.8%
- Overall incidence of drug-related AEs ([3]; all cohorts (24/29)): 82.8%
- Incidence of TEAEs ([3]; all treatment groups (29/29)): 100%
- Dose-limiting toxicity (DLT) ([3]; daily dose from 25 mg to 200 mg, Cycle 1): No DLT was observed
